The test system of this assay is MKN-45-luc. Description: Abdominal cavity metastasis model of gastric cancer. The class given is in vivo, NCG mice. As to conditions: single dose of 1.5 mg/kg i.p., Day 0; FIG. 3. The method, then: To study whether EpCAM-CAR-T (the amino acid sequence of the chimeric antigen receptor of EpCAM-CAR-T is set forth in SEQ ID NO: 16) can clear abdominal metastatic tumors of gastric cancer and whether the chemotherapeutic drug docetaxel can enhance the efficacy of CAR-T, we constructed an abdominal cavity metastasis model of gastric cancer based on a gastric cancer cell line MKN-45-luc. Modeling: human gastric cancer cells MKN-45-luc were cultured in an RPMI-1640 culture medium with 10% FBS in an incubator at 37° C. with 5% CO2. Before continuous cell culturing for ten generations, the cells were inoculated into the abdominal cavity of mice, about 1.5×10^6 MKN-45-luc cells were resuspended in PBS, and inoculated into NCG mice by intraperitoneal injection in a volume of […]. Grouping and administration: 7 days after the inoculation, the growth of tumor cells in the abdominal cavity was detected using a small animal in vivo imaging fluorometer. The mice were randomly grouped according to the body weight and tumor size (fluorescence intensity), with 5 animals in each group, for a total of 6 groups. The day of grouping was defined as day 0.

Regarding `CC(=O)O[C@@]12CO[C@@H]1C[C@H](O)[C@@]1(C)C(=O)[C@H](O)C3=C(C)[C@@H](OC(=O)[C@H](O)[C@@H](NC(=O)OC(C)(C)C)c4ccccc4)C[C@@](O)([C@@H](OC(=O)c4ccccc4)[C@H]21)C3(C)C` [docetaxel], the efficacy result was “did not produce significant efficacy”.

The values are drawn from patent publication US20260083843A1, “IMMUNE CELLS TARGETING EPCAM AND MEDICAL USE THEREOF” (SUZHOU IMMUNOFOCO BIOTECHNOLOGY CO., LTD, priority 2022, published 2026).
